Data: article PMC7285070, “Quercetin Is a Flavonoid Breast Cancer Resistance Protein Inhibitor with an Impact on the Oral Pharmacokinetics of Sulfasalazine in Rats” (Pharmaceutics, 2020)
Where “and” joins values, the source holds several entries; their conditions need not be identical. Identical values can stand only once. Like-named read-outs stand apart in the source and are kept apart here.

Key:
[1] = design: method as in PMID 15608138; details: rats or P-gp-knockout mice; cited from earlier work
mouse BCRP = system: mouse BCRP; design: method as in PMID 15608138; details: cited from earlier work
human BCRP [2] = biological target: T1, human BCRP (Homo sapiens, UniProt Q9UNQ0); design: expressed in transfected cells; host or cells: MDCKII (Madin-Darby canine kidney II) cells; method as in PMID 15608138; details: cited from earlier work
T1 sequence (Q9UNQ0 1-655): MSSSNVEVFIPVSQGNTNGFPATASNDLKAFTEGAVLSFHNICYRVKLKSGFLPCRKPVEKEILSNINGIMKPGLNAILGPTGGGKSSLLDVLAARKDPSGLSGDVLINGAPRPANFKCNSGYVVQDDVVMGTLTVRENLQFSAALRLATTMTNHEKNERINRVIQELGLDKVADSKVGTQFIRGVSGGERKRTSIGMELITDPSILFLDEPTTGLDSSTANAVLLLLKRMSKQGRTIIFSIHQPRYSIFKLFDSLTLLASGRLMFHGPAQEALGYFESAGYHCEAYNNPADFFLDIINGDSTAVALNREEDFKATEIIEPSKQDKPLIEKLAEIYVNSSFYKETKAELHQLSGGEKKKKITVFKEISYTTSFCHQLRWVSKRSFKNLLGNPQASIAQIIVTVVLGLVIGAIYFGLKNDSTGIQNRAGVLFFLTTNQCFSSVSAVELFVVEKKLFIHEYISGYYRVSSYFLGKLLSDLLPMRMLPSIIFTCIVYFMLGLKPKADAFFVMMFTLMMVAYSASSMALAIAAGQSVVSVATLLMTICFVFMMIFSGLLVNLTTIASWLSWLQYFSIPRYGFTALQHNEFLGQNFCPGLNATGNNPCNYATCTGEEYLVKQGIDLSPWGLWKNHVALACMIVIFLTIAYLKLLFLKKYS

HeLa cells [3] = assay: FACS cellular accumulation of mitoxantrone (flow cytometry); format: cell-based, human; details: for percentage of cells with a significant uptake of MX, higher than at 2 h of treatment with MX alone: 1 μM MX alone
Description: The cellular accumulation of quercetin was measured by FACSCalibur flow cytometry (Becton Dickinson, San Jose, CA, USA). For FACScan analysis, 2 × 10^5 HeLa cells/well were seeded into 6-well cell culture plates on the day before the experiment. On the following day, cells were treated with vehicle or quercetin and 1 μM MX. A time course experiment was conducted on HeLa cells following treatment with quercetin (1 and 100 μM) for 2, 4, and 6 h. After treatment, the cells were harvested by trypsinization and transferred to a fluorescence-activated cell sorting (FACS) tube, pelleted by centrifugation (1500 rpm, 5 min), and then resuspended in 200 μL of PBS. Flow cytometry analysis was performed using red fluorescence. A minimum of 10,000 cells were acquired per sample.

HeLa cells [4] = assay: Cytotoxicity assay (CCK-8) of mitoxantrone with or without BCRP inhibitor; format: cell-based, human; details: for IC50: 24 h, CCK-8
Description: Dojindo Molecular Technologies, Kumamoto, Japan) following the manufacturer’s instructions. HeLa cells (at a density of 1 × 10^4 cells per well) were seeded and cultured overnight in 96-well plates. […] The absorbance was measured at a wavelength of 450 nm using a microplate reader (BioTeK, Highland Park, WI, USA).

human BCRP [5] = biological target: T1, human BCRP; details: read-out: Km value for prazosin; BCRP-mediated transport; cited from earlier work
BCRP [6] = system: BCRP; design: method as in PMID 21354800; details: MCF-7/MX cells; read-out: IC50, Hoechst 33342 accumulation; cited from earlier work
BCRP [7] = system: BCRP; design: method as in PMID 21354800; details: MDCKII/BCRP cells; read-out: IC50, Hoechst 33342 accumulation; cited from earlier work
[8] = design: method as in PMID 15948033; details: 10 mg/kg oral administration to rats; cited from earlier work
human BCRP [9] = biological target: T1, human BCRP; assay: Bi-directional transport of prazosin in MDCKII/BCRP cells; format: cell-based; design: expressed in transfected cells; host or cells: MDCKII (Madin-Darby canine kidney II) cells
Description: At the end of the incubation, aliquots (300 μL for the apical chamber and 500 μL for the basolateral chamber) of the incubation mixture were collected from the donor and receiver chambers and subjected to LC-MS/MS assays. […] Briefly, an aliquot (50 μL) of a sample was vortex-mixed with an acetonitrile solution containing glipizide (300 ng/mL, internal standard); this was followed by centrifugation (16,100 × g for 5 min at 4 °C). An aliquot (5 μL) of the supernatant was directly injected into the LC-MS/MS system. […] For the internal standard glipizide, the transition m/z 445.[…]/z 320.9 was used. […] The efflux ratio (ER) was calculated by dividing the B-to-A apparent permeability coefficient (Papp, B-to-A) by the A-to-B apparent permeability coefficient (Papp, A-to-B). In the inhibition studies, the percentage of the control efflux ratio (%ER) was also calculated by dividing the value for ER in the presence of the inhibitor by that in the absence of the inhibitor (i.e., in the control).

in vivo = assay: in vivo; design: species or system rats; details: rat
Description: To determine whether quercetin affects the intestinal efflux mediated by BCRP, we divided the male rats into two groups: A sulfasalazine (a substrate of BCRP) control group and a quercetin pretreatment plus sulfasalazine group (n = 4, each). Considering the similar expression levels of intestinal BCRP between male and female rats, male rats were used in this study. Briefly, overnight fasted male SD rats were anesthetized by intramuscular administration of 50 mg/kg tiletamine HCl/zolazepam HCl (Zoletil®) (Vibrac, TX, USA) and 10 mg/kg xylazine HCl (Rompun®, Bayer, Puteaux, France). While the rats were anesthetized, the femoral artery (for blood sampling) and vein (for supplementing body fluids) were catheterized using polyethylene tubing (PE 50; Clay Adams, Parsippany, NJ, USA). Upon recovery from anesthesia (i.e., after 4 h), quercetin was administered by oral gavage at 10 mg/kg (or 0 mg/kg in the case of the sulfasalazine control group; DMSO/polyethylene glycol 400/saline [1:4:5 (v/v/v)]). The pretreatment dose of quercetin was determined based on the compound solubility in the dosing vehicle and the likely daily dose of human dietary supplement. […] Immediately after each blood collection, an identical volume of saline was intravenously provided to the animal to compensate for fluid loss. To prevent blood clotting during blood collection, the cannula was filled with 25 IU/mL heparinized saline. The plasma fraction was separated from the blood samples by centrifugation (16,100 × g for 5 min at 4 °C) and stored at -80 °C until the LC-MS/MS assay. […] Briefly, an aliquot (50 μL) of a sample was vortex-mixed with an acetonitrile solution containing glipizide (300 ng/mL, internal standard); this was followed by centrifugation (16,100 × g for 5 min at 4 °C). An aliquot (5 μL) of the supernatant was directly injected into the LC-MS/MS system. […] For the internal standard glipizide, the transition m/z 445.[…]/z 320.9 was used. […] Standard non-compartmental pharmacokinetic analysis was carried out using WinNonlin Professional 5.0.1 software (Pharsight, Cary, NC, USA) to calculate the pharmacokinetic parameters, including the peak concentration (Cmax), time of the peak concentration (tmax), elimination half-life (t1/2), area under the plasma concentration-time curve from time zero to the last sampling point, 8 h (AUC8h), and elimination clearance (CL/F).

[10] = design: method as in PMID 22711747; details: BCRP-knockout rats, oral; cited from earlier work

Q: With `O=c1cc(-c2ccccc2)oc2cc(O)cc(O)c12` [chrysin] as the molecule, how does the “effect of coadministered flavonoid on the pharmacokinetics of topotecan” value [1] read?
A: no significant effects

Q: What about the “inhibition of mouse BCRP” value (mouse BCRP) of the same molecule?
A: weak inhibitors

Q: What about the “inhibition of human BCRP” value (human BCRP [2]) of the same molecule?
A: potent inhibitors

Q: Which “effect of coadministered flavonoid on the pharmacokinetics of topotecan” value [1] does the source give for `O=c1cc(-c2ccccc2)oc2c1ccc1ccccc12` [7,8-benzoflavone] here?
A: no significant effects

Q: And the “inhibition of mouse BCRP” value (mouse BCRP)?
A: weak inhibitors

Q: What about the “inhibition of human BCRP” value (human BCRP [2]) of the same molecule?
A: potent inhibitors

Q: Which “percentage of cells with a significant uptake of MX, higher than at 2 h of treatment with MX alone” value (HeLa cells [3]; 4 h) does the source give for `O=C1c2c(O)ccc(O)c2C(=O)c2c(NCCNCCO)ccc(NCCNCCO)c21` [mitoxantrone] here?
A: 17.2%

Q: What about the “percentage of cells with a significant uptake of MX, higher than at 2 h of treatment with MX alone” value (HeLa cells [3]; 6 h) of the same molecule?
A: 27.1%

Q: What about the “cellular uptake of MX, higher than at 2 h of treatment with MX alone” value (from here on “cellular uptake of MX, higher than”) (HeLa cells [3]; 1 μM MX with 1 μM quercetin, 4 h) of the same molecule?
A: 30.2%

Q: What about the “cellular uptake of MX, higher than” value (HeLa cells [3]; 1 μM MX with 1 μM quercetin, 6 h) of the same molecule?
A: 35.9%

Q: What about the “cellular uptake of MX, higher than” value (HeLa cells [3]; 1 μM MX with 100 μM quercetin, 4 h) of the same molecule?
A: 45.3%

Q: What about the “cellular uptake of MX, higher than” value (HeLa cells [3]; 1 μM MX with 100 μM quercetin, 6 h) of the same molecule?
A: 67.4%

Q: And the IC50 (HeLa cells [4]; Homo sapiens, in the presence of Ko143 (1 μM))?
A: 0.62 µM

Q: What about the IC50 (HeLa cells [4]; Homo sapiens, HeLa, mitoxantrone alone) of the same molecule?
A: 5.83 µM

Q: What about the IC50 (HeLa cells [4]; Homo sapiens, HeLa, with 1 μM quercetin) of the same molecule?
A: 1.13 µM

Q: What about the IC50 (HeLa cells [4]; Homo sapiens, HeLa, with 100 μM quercetin) of the same molecule?
A: 0.478 µM

Q: And the “IC50 of mitoxantrone as percentage of the control value (mitoxantrone alone)” value (HeLa cells [4]; with 1 μM quercetin)?
A: 19.3%

Q: What about the “IC50 of mitoxantrone as percentage of the control value (mitoxantrone alone)” value (HeLa cells [4]; with 100 μM quercetin) of the same molecule?
A: 8.2% and 8.23%

Q: And the IC50 (HeLa cells [4]; with 100 μM quercetin)?
A: 0.48 µM

Q: For `COc1ccc2c3c([nH]c2c1)[C@H](CC(C)C)N1C(=O)[C@H](CCC(=O)OC(C)(C)C)NC(=O)[C@@H]1C3` [Ko143], which “internalization of MX when co-administered with inhibitor” value (HeLa cells [3]; 1 μM Ko143 with MX) is on record?
A: considerably high number of cells that internalized MX

Q: Which Km (human BCRP [5]) does the source give for `COc1cc2nc(N3CCN(C(=O)c4ccco4)CC3)nc(N)c2cc1OC` [prazosin, Prazosin] here?
A: 128 µM

Q: With `O=c1c(O)c(-c2ccc(O)c(O)c2)oc2cc(O)cc(O)c12` [quercetin, Quercetin] as the molecule, how does the IC50 (BCRP [6]) read?
A: 7.6 µM

Q: And the IC50 (BCRP [7])?
A: 6.9 µM

Q: And the Cmax [8]?
A: 210 ng/mL

Q: What about the oral bioavailability [8] of the same molecule?
A: 5.3%

Q: What about the IC50 (human BCRP [9]) of the same molecule?
A: 4.22 µM

Q: And the Ki (human BCRP [9])?
A: 3.91 µM

Q: What does the source list for `O=C(O)c1cc(/N=N/c2ccc(S(=O)(=O)Nc3ccccn3)cc2)ccc1O` [sulfasalazine]?
A: AUC8h (in vivo; male, SD, po, 2 mg/kg): 44500 ± 11800 ng·min/mL; CL/F (in vivo; male, SD, po, 2 mg/kg): 33.2 ± 10.2 mL/min/kg; Cmax (in vivo; male, SD, po, 2 mg/kg): 179 ± 23.0 ng/mL; t1/2 (in vivo; male, SD, po, 2 mg/kg): 4.03 ± 1.34 h; tmax (in vivo; male, SD, po, 2 mg/kg): 0.375 ± 0.145 h; AUC(0-t) (in vivo; male, SD, po, 2 mg/kg, AUC8h): 428 ng·h/mL; CL/F (in vivo; male, SD, po, 2 mg/kg, CL/F): 52.5 ± 33.5 mL/min/kg; Cmax (in vivo; male, SD, po, 2 mg/kg, Cmax): 122 ± 23.2 ng/mL; half-life (in vivo; male, SD, po, 2 mg/kg, t1/2): 6.38 ± 1.85 h; tmax (in vivo; male, SD, po, 2 mg/kg, tmax): 0.5 h; change in the elimination half-life (t1/2) of sulfasalazine, quercetin pretreatment vs control (in vivo): no significant change; increase in absorption (AUC8h, Cmax) of sulfasalazine in knockout rats [10]: approximately 20 fold
